According to the supplement of paper PMC10307832:

Tests used:
Assay in all cases: relative viability (nuclei count vs DMSO), 5 days (fraction); higher = more cells survive
[1] = test system: NCI-H1944
Summary of the method: (§1)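 Each reported value is a median over duplicate plates. It expresses relative viability: treated-well nuclei count divided by vehicle-well nuclei count. Lung cancer cell lines in 1536-well plates were dosed by pin tool a day after seeding, alone with one drug or with a fixed anchor-drug dose plus five library-drug doses (not always all listed) in √10 steps, and nuclei were counted after 5 days.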

[2] = test system: NCI-H838
Summary of the method: as §1

[3] = test system: NCI-H1993
Summary of the method: as §1

[4] = test system: HCC-366
Summary of the method: as §1

[5] = test system: HCC-78
Summary of the method: as §1

[6] = test system: NCI-H1793
Summary of the method: as §1

[7] = test system: NCI-H2126
Summary of the method: as §1

[8] = test system: ChaGo-K-1
Summary of the method: as §1

[9] = test system: NCI-H358
Summary of the method: as §1

[10] = test system: HARA
Summary of the method: as §1

[11] = test system: LC-2-ad
Summary of the method: as §1

[12] = test system: NCI-H23
Summary of the method: as §1

[13] = test system: HOP-62
Summary of the method: as §1

[14] = test system: NCI-H1395
Summary of the method: as §1

[15] = test system: ABC-1
Summary of the method: as §1

[16] = test system: NCI-H2405
Summary of the method: as §1

[17] = test system: EMC-BAC-2
Summary of the method: as §1

[18] = test system: HCC-15
Summary of the method: as §1

`Cc1sc2c(c1C)C(c1ccc(Cl)cc1)=N[C@@H](CC(=O)OC(C)(C)C)c1nnc(C)n1-2` [JQ1] + NC(=O)Nc1cc(-c2cccc(F)c2)sc1C(=O)N[C@H]1CCCNC1 [AZD7762] (partner 0.2 µM) was tested, and the relative viability ([1]; first compound 0.04 µM) was 0.533, the relative viability ([1]; first compound 0.1265 µM) was 0.412 and the relative viability ([1]; first compound 0.4 µM) was 0.434. It also gave a relative viability ([1]; first compound 1.265 µM) of 0.365, a relative viability ([1]; first compound 4 µM) of 0.313 and a relative viability ([2]; first compound 0.04 µM) of 0.907. It also gave a relative viability ([2]; first compound 0.1265 µM) of 0.782, a relative viability ([2]; first compound 0.4 µM) of 0.817 and a relative viability ([2]; first compound 1.265 µM) of 0.805. For the same compound, the relative viability ([2]; first compound 4 µM) was 0.628, the relative viability ([3]; first compound 0.04 µM) was 0.849 and the relative viability ([3]; first compound 0.1265 µM) was 0.779. For the same compound, the relative viability ([3]; first compound 0.4 µM) was 0.796, the relative viability ([3]; first compound 1.265 µM) was 0.53 and the relative viability ([3]; first compound 4 µM) was 0.488. The relative viability ([4]; first compound 0.04 µM) was 0.305, the relative viability ([4]; first compound 0.4 µM) was 0.23 and the relative viability ([4]; first compound 1.265 µM) was 0.146. For the same compound, the relative viability ([4]; first compound 4 µM) was 0.0976, the relative viability ([5]; first compound 0.04 µM) was 0.762 and the relative viability ([5]; first compound 0.1265 µM) was 0.574. The relative viability ([5]; first compound 0.4 µM) was 0.559, the relative viability ([5]; first compound 1.265 µM) was 0.421 and the relative viability ([5]; first compound 4 µM) was 0.208. For the same compound, the relative viability ([6]; first compound 0.04 µM) was 0.482, the relative viability ([6]; first compound 0.1265 µM) was 0.395 and the relative viability ([6]; first compound 0.4 µM) was 0.824. It also gave a relative viability ([6]; first compound 1.265 µM) of 0.556, a relative viability ([6]; first compound 4 µM) of 0.459 and a relative viability ([7]; first compound 0.04 µM) of 1.08. For the same compound, the relative viability ([7]; first compound 0.1265 µM) was 1.01, the relative viability ([7]; first compound 0.4 µM) was 1.04 and the relative viability ([7]; first compound 1.265 µM) was 0.956. It also gave a relative viability ([7]; first compound 4 µM) of 0.838, a relative viability ([8]; first compound 0.04 µM) of 0.875 and a relative viability ([8]; first compound 0.1265 µM) of 0.89. It also gave a relative viability ([8]; first compound 0.4 µM) of 0.899, a relative viability ([8]; first compound 1.265 µM) of 0.821 and a relative viability ([8]; first compound 4 µM) of 0.536. It also gave a relative viability ([9]; first compound 0.04 µM) of 0.524, a relative viability ([9]; first compound 0.1265 µM) of 0.565 and a relative viability ([9]; first compound 0.4 µM) of 0.538. It also gave a relative viability ([9]; first compound 1.265 µM) of 0.344, a relative viability ([9]; first compound 4 µM) of 0.232 and a relative viability ([10]; first compound 0.04 µM) of 0.303. For the same compound, the relative viability ([10]; first compound 0.1265 µM) was 0.431, the relative viability ([10]; first compound 0.4 µM) was 0.236 and the relative viability ([10]; first compound 1.265 µM) was 0.155. The relative viability ([10]; first compound 4 µM) was 0.242, the relative viability ([11]; first compound 0.04 µM) was 0.793 and the relative viability ([11]; first compound 0.1265 µM) was 0.42. For the same compound, the relative viability ([11]; first compound 0.4 µM) was 0.374, the relative viability ([11]; first compound 1.265 µM) was 0.249 and the relative viability ([11]; first compound 4 µM) was 0.204. For the same compound, the relative viability ([12]; first compound 0.04 µM) was 0.208, the relative viability ([12]; first compound 0.1265 µM) was 0.21 and the relative viability ([12]; first compound 0.4 µM) was 0.215. The relative viability ([12]; first compound 1.265 µM) was 0.127, the relative viability ([12]; first compound 4 µM) was 0.105 and the relative viability ([13]; first compound 0.04 µM) was 0.535. For the same compound, the relative viability ([13]; first compound 0.1265 µM) was 0.608, the relative viability ([13]; first compound 0.4 µM) was 0.37 and the relative viability ([13]; first compound 1.265 µM) was 0.103. The relative viability ([13]; first compound 4 µM) was 0.107, the relative viability ([14]; first compound 0.04 µM) was 0.384 and the relative viability ([14]; first compound 0.1265 µM) was 0.379. It also gave a relative viability ([14]; first compound 0.4 µM) of 0.372, a relative viability ([14]; first compound 1.265 µM) of 0.348 and a relative viability ([14]; first compound 4 µM) of 0.361. The relative viability ([15]; first compound 0.04 µM) was 0.854, the relative viability ([15]; first compound 0.1265 µM) was 0.803 and the relative viability ([15]; first compound 0.4 µM) was 0.95. For the same compound, the relative viability ([15]; first compound 1.265 µM) was 0.596, the relative viability ([15]; first compound 4 µM) was 0.529 and the relative viability ([16]; first compound 0.04 µM) was 0.712. For the same compound, the relative viability ([16]; first compound 0.4 µM) was 0.646, the relative viability ([16]; first compound 1.265 µM) was 0.586 and the relative viability ([16]; first compound 4 µM) was 0.365. For the same compound, the relative viability ([17]; first compound 0.04 µM) was 1.08, the relative viability ([17]; first compound 0.1265 µM) was 0.869 and the relative viability ([17]; first compound 0.4 µM) was 0.975. The relative viability ([17]; first compound 1.265 µM) was 0.725, the relative viability ([17]; first compound 4 µM) was 0.627 and the relative viability ([18]; first compound 0.04 µM) was 1.32. It also gave a relative viability ([18]; first compound 0.1265 µM) of 0.924, a relative viability ([18]; first compound 0.4 µM) of 0.978 and a relative viability ([18]; first compound 1.265 µM) of 0.512. It also gave a relative viability ([18]; first compound 4 µM) of 0.742.
